Laboratory results taken from patent US8993542B2, “Methods of treating viral infections” (priority 2008, dated 2015).
Read-outs that look alike come from different tables or passages of the source.

Experiments:
Assay type in all cases: cell-based
HIV-2 Isolates = test: Activity against HIV-2 isolates in PBMCs, RT endpoint; conditions: for IC50: Human immunodeficiency virus 2, PBMC
[1] = Cytotoxicity (TC50) in PBMCs; conditions: PBMCs
HIV = test: microbe, parasite or virus in culture
HIV-1IIIB = test: TCID50 determination of drug-treated HIV-1IIIB; design: TCID50, XTT Endpoint / TCID50, RT Endpoint / TCID50, P24 Endpoint: unit not given here
[2] = 500 nM, compound removal at 1 minute
[3] = 500 nM, compound removal at 15 minutes
[4] = 500 nM, compound removal at 30 minutes
[5] = 500 nM, compound removal at 60 minutes
[6] = 500 nM, compound removal at 120 minute
[7] = virus treated 15 minutes with 0.039 nM drug
[8] = virus treated 15 minutes with 0.125 nM drug

CCCCCCCCCCCCCCCCOCCCOP(=O)(O)CO[C@H](C)Cn1cnc2c(N)ncnc21 [CMX157, Hexadecyloxypropyl-9-R-[2-(Phosphonomethoxy)Propyl]-Adenine]
TI (TC50/IC50) (HIV-2 Isolates; HIV-2 isolate CBL-20): >223 | TI (TC50/IC50) (HIV-2 Isolates; HIV-2 isolate CDC310319): >564 | TI (TC50/IC50) (HIV-2 Isolates; HIV-2 isolate CDC310342): >232 | IC50 (HIV-2 Isolates; HIV-2 isolate CBL-20): 4.48 nM | IC50 (HIV-2 Isolates; HIV-2 isolate CDC310319): 1.77 nM | IC50 (HIV-2 Isolates; HIV-2 isolate CDC310342): 4.31 nM | CC50 ([1]; HIV-2 isolate CDC310319): > 1000 nM | CC50 ([1]; human, isolate ADA, subtype B, read-out: TC 50 (the source's name)): > 1000 nM | IC50 (HIV; Human immunodeficiency virus 1, PANEL 1, WT): 1.72 nM | IC50 (HIV; Human immunodeficiency virus 1, PANEL 2, WT): 1.61 nM | IC50 (HIV; Human immunodeficiency virus 1, PANEL 3, 6 TAMs, no 184): 8.5 nM | IC50 (HIV; Human immunodeficiency virus 1, PANEL 6, 6 TAMs + 184): 5.21 nM | IC50 (HIV; Human immunodeficiency virus 1, PANEL 7, 184V): 1.36 nM | IC50 (HIV; Human immunodeficiency virus 1, PANEL 9, 69ins, no 184): 57.4 nM | IC50 (HIV; Human immunodeficiency virus 1, PANEL 12, 69ins + 184): 11.2 nM | IC50 (HIV; Human immunodeficiency virus 1, PANEL 14, 65R, no 184): 3.6 nM | IC50 (HIV; Human immunodeficiency virus 1, PANEL 15, 65R + 184V): 2.71 nM | IC50 (HIV; Human immunodeficiency virus 1, PANEL 17, L74V): 1.23 nM | IC50 (HIV; Human immunodeficiency virus 1, PANEL 19, L74V + M184V): 0.66 nM | IC50 (HIV; Human immunodeficiency virus 1, PANEL 26, 151M, no 184): 3.68 nM | IC50 (HIV; Human immunodeficiency virus 1, PANEL 28, 151M + 184): 3.05 nM | IC50 (HIV; Human immunodeficiency virus 1, PANEL 29, L74V − SDM): 1.48 nM | IC50 (HIV; Human immunodeficiency virus 1, PANEL 30, M184V − SDM): 1.15 nM | IC50 (HIV; Human immunodeficiency virus 1, PANEL 31, K65R − SDM): 4.73 nM | IC50 (HIV; Human immunodeficiency virus 1, PANEL 33, T215Y): 5 nM | IC50 (HIV; Human immunodeficiency virus 1, PANEL 34, T215Y + M184V): 1.67 nM | IC50 (HIV; Human immunodeficiency virus 1, PANEL 35, M41L + T215Y): 3.91 nM | IC50 (HIV; Human immunodeficiency virus 1, PANEL 37, M41L + T215Y + M184V): 2.88 nM | IC50 (HIV; Human immunodeficiency virus 1, PANEL 38, M41L + L210W + T215Y): 5.96 nM | IC50 (HIV; Human immunodeficiency virus 1, PANEL 39, M41L + L210W + T215Y): 6.56 nM | IC50 (HIV; Human immunodeficiency virus 1, PANEL 40, M41L + L210W + T215Y + M184V): 1.89 nM | IC50 (HIV; Human immunodeficiency virus 1, PANEL 41, M41L + L210W + T215Y + M184V): 2.5 nM | IC50 (HIV; Human immunodeficiency virus 1, PANEL 42, D67N + K70R): 5.61 nM | IC50 (HIV; Human immunodeficiency virus 1, PANEL 44, D67N + K70R + T215F + K219E + M184V): 1.92 nM | IC50 (HIV; Human immunodeficiency virus 1, PANEL 45, L210W + T215Y): 2.79 nM | IC50 (HIV; Human immunodeficiency virus 1, PANEL 46, D67N + K70E): 2.12 nM | IC50 (HIV; Human immunodeficiency virus 1, PANEL 47, D67N + K70E + M184V): 1.45 nM | IC50 (HIV; Human immunodeficiency virus 1, PANEL 48, K70E + M184V): 1.32 nM | IC50 (HIV; Human immunodeficiency virus 1, read-out: IC50s against NRTI resistant HIV, range over panel): 1.2 to 57 nM | Fold Decrease From VC, P24 Endpoint (HIV-1IIIB; [2]): (8.0) Fold | Fold Decrease From VC, RT Endpoint (HIV-1IIIB; [2]): (5.2) Fold | Fold Decrease From VC, XTT Endpoint (HIV-1IIIB; [2]): (2.2) Fold | TCID50, P24 Endpoint (HIV-1IIIB; [2]): 4529 | TCID50, RT Endpoint (HIV-1IIIB; [2]): 25588 | TCID50, XTT Endpoint (HIV-1IIIB; [2]): 2014 | Fold Decrease From VC, P24 Endpoint (HIV-1IIIB; [3]): (5.7) Fold | Fold Decrease From VC, RT Endpoint (HIV-1IIIB; [3]): (3.6) Fold | Fold Decrease From VC, XTT Endpoint (HIV-1IIIB; [3]): (4.0) Fold | TCID50, P24 Endpoint (HIV-1IIIB; [3]): 6398 | TCID50, RT Endpoint (HIV-1IIIB; [3]): 18115 | TCID50, XTT Endpoint (HIV-1IIIB; [3]): 1132 | Fold Decrease From VC, P24 Endpoint (HIV-1IIIB; [4]): (2.0) Fold | Fold Decrease From VC, RT Endpoint (HIV-1IIIB; [4]): (2.8) Fold | Fold Decrease From VC, XTT Endpoint (HIV-1IIIB; [4]): (2.0) Fold | TCID50, P24 Endpoint (HIV-1IIIB; [4]): 18115 | TCID50, RT Endpoint (HIV-1IIIB; [4]): 22805 | TCID50, XTT Endpoint (HIV-1IIIB; [4]): 2014 | Fold Decrease From VC, P24 Endpoint (HIV-1IIIB; [5]): (4.0) Fold | Fold Decrease From VC, RT Endpoint (HIV-1IIIB; [5]): (3.4) Fold | Fold Decrease From VC, XTT Endpoint (HIV-1IIIB; [5]): (2.5) Fold | TCID50, P24 Endpoint (HIV-1IIIB; [5]): 9058 | TCID50, RT Endpoint (HIV-1IIIB; [5]): 25588 | TCID50, XTT Endpoint (HIV-1IIIB; [5]): 1600 | Fold Decrease From VC, P24 Endpoint (HIV-1IIIB; [6]): (5.7) Fold | Fold Decrease From VC, RT Endpoint (HIV-1IIIB; [6]): (3.2) Fold | Fold Decrease From VC, XTT Endpoint (HIV-1IIIB; [6]): (4.0) Fold | TCID50, P24 Endpoint (HIV-1IIIB; [6]): 6398 | TCID50, RT Endpoint (HIV-1IIIB; [6]): 25588 | TCID50, XTT Endpoint (HIV-1IIIB; [6]): 1132 | concentrations resulting in reduced infectivity (HIV-1IIIB; 15 minutes incubation): ≥ 3.9 nM | reduction of viral replication (HIV-1IIIB; 1000, 500, 250 or 125 nM, 2 hours): 2-4 fold | Fold Decrease From VC, P24 Endpoint (HIV-1IIIB; [7]): (0) Fold | Fold Decrease From VC, RT Endpoint (HIV-1IIIB; [7]): (1.0) Fold | Fold Decrease From VC, XTT Endpoint (HIV-1IIIB; [7]): (1.1) Fold | TCID50, P24 Endpoint (HIV-1IIIB; [7]): 36337 | TCID50, RT Endpoint (HIV-1IIIB; [7]): 157772 | TCID50, XTT Endpoint (HIV-1IIIB; [7]): 16145 | Fold Decrease From VC, P24 Endpoint (HIV-1IIIB; [8]): (0) Fold | Fold Decrease From VC, RT Endpoint (HIV-1IIIB; [8]): (1.1) Fold | Fold Decrease From VC, XTT Endpoint (HIV-1IIIB; [8]): (1.1) Fold | TCID50, P24 Endpoint (HIV-1IIIB; [8]): 30411 | TCID50, RT Endpoint (HIV-1IIIB; [8]): 144887 | TCID50, XTT Endpoint (HIV-1IIIB; [8]): 16145
